US20170121315A1, “HETEROBICYCLICALLY SUBSTITUTED 4-OXOBUTANE ACID DERIVATIVES AND USE THEREOF” (priority 2014, published 2017)

Experiments:
rat hepatocytes = experiment: Hepatocyte assay for determination of metabolic stability; format: in vitro ADME; conditions: after incubation with rat hepatocytes
Protocol: The metabolic stability of test compounds towards hepatocytes is determined by incubating the compounds at low concentrations (preferably below or around 1 μM) and at low cell counts (preferably at 1*10^6 cells/ml) in order to ensure maximum linearity of kinetic conditions in the experiment. Seven samples from the incubation solution are taken for the LC-MS analysis within a fixed time pattern, in order to determine the half-life (i.e. the degradation) of the particular compound. This half-life is used to calculate various “Clearance” parameters (CL) and “Fmax” values (see below).
The CL and Fmax values are a measure of the phase 1 and phase 2 metabolism of the compounds in the hepatocytes. In order to minimize the influence of the organic solvent on the enzymes in the incubation batches, the concentration thereof is generally limited to 1% (acetonitrile) or 0.1% (DMSO).
For all species and breeds, a hepatocyte cell count in the liver of 1.1*10^8 cells/g of liver is expected.

MMP-8 = biological target: T1, MMP-8 (Homo sapiens, UniProt P22894); experiment: In vitro MMP-8 inhibition test; format: biochemical; conditions: human MMP-8
T1 construct: purchased R&D Systems 908-MP
T1 sequence (P22894 101-467): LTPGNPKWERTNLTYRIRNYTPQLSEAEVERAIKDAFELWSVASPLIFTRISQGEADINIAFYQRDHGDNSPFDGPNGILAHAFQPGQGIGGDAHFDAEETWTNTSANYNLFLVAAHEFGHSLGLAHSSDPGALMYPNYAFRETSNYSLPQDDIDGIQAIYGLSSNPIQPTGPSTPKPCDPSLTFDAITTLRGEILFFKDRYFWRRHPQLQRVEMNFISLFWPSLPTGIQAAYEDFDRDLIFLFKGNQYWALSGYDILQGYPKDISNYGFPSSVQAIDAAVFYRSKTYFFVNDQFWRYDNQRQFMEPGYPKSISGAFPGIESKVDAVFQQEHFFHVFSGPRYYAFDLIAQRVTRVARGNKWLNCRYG
Description: (§1) The MMP-mediated amidolytic cleavage of a suitable peptide substrate leads to an increase in fluorescent light here too. The signal intensity of the fluorescent light is directly proportional to the enzyme activity. The active concentration of a test compound at which half the enzyme is inhibited (50% signal intensity of the fluorescent light) is reported as the IC50 value.
(§2) Recombinant MMP-8 (R&D Systems, 908-MP) is chemically activated in accordance with the manufacturer's instructions using APMA. 1 μl of the test compound to be analysed (as a solution in DMSO, suitable concentrations e.g. 1 nM to 30 μM) is pipetted into 24 μl of activated enzyme (final concentration e.g. 0.5 nM) in reaction buffer (50 mM Tris/HCl pH 7.5, 10 mM CaCl2, 150 mM NaCl, 0.05% Brij®-35) in a white 384-hole microtiter plate (MTP). The enzymatic reaction is started by adding the intramolecularly quenched Mca-Pro-Leu-Gly-Leu-Dpa(Dnp)-Ala-Arg-NH2 substrate (final concentration e.g. 10 μM; R&D Systems, ES-001), so as to result in a total test volume of 50 μl. The course of the MMP-8 reaction is measured by measuring the fluorescence intensity (excitation 320 nm, emission 410 nm) over a suitable period of time (e.g. over 120 min at a temperature of 32° C.).

MMP-3 = biological target: T2, MMP-3 (Homo sapiens, UniProt P08254); experiment: In vitro MMP-3 inhibition test; format: biochemical; conditions: human MMP-3
T2 construct: purchased R&D Systems 513-MP
T2 sequence (P08254 100-477): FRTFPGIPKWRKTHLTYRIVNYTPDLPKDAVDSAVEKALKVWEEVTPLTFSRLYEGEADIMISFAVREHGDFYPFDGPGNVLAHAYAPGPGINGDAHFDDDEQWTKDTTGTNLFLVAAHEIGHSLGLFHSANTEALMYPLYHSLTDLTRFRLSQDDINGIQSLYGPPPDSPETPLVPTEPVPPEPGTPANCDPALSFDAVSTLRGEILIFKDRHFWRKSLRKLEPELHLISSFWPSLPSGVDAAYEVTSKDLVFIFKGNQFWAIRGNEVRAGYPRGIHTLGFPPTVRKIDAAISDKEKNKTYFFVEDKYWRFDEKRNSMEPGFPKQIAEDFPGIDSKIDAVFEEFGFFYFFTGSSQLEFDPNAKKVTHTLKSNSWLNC
Description: as §1
as §2, with “MMP-3” for “MMP-8”, “513-MP)” for “908-MP)”, “2” for “0.5”, “Mca-Arg-Pro-Lys-Pro-Val-Glu-Nval-Trp-Arg-Lys(Dnp)-NH2” for “Mca-Pro-Leu-Gly-Leu-Dpa(Dnp)-Ala-Arg-NH2”, “ES-002),” for “ES-001),”

MMP-2 = biological target: T3, MMP-2 (Homo sapiens, UniProt P08253); experiment: In vitro MMP-2 inhibition test; format: biochemical; conditions: human MMP-2
T3 construct: purchased R&D Systems 902-MP
T3 sequence (P08253 110-660): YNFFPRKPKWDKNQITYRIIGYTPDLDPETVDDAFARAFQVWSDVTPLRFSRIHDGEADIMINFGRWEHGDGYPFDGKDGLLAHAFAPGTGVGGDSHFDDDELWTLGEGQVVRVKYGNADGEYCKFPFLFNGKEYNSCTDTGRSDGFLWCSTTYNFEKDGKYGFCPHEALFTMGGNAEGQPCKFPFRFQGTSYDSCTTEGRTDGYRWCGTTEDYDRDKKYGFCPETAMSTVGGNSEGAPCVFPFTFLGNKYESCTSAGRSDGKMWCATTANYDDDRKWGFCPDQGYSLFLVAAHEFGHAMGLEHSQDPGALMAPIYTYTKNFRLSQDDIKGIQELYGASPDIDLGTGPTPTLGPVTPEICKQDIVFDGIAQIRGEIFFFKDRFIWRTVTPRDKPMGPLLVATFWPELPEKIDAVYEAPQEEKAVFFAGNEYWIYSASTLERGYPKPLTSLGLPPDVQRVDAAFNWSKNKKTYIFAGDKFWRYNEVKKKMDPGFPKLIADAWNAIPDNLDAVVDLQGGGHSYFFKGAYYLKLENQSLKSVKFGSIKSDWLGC
Description: as §1
as §2, with “MMP-2” for “MMP-8”, “902-MP)” for “908-MP)”, “2” for “0.5”

| CLblood (calculated blood clearance, well-stirred) (rat hepatocytes) [mL/min/kg] | Fmax (maximum possible bioavailability after oral administration, well-stirred) (rat hepatocytes) [%] | IC50 (MMP-8) [nM] | IC50 (MMP-3) [nM] | IC50 (MMP-2) [nM] | Structure (SMILES) |
| --- | --- | --- | --- | --- | --- |
| 27 | 61.4 | 7700 | > 40000 | 5000 | O=C(CC(CCn1nnc2ccccc2c1=O)C(=O)O)c1cc2cc(OCC3CCOCC3)ccc2o1 (racemic) [Example 5, (+/−)-4-Oxo-2-[2-(4-oxo-1,2,3-benzotriazin-3(4H)-yl)ethyl]-4-[5-(tetrahydro-2H-pyran-4-ylmethoxy)-1-benzofur-2-yl]butanoic acid] |
| 23.2 | 66.9 | > 40000 | 29000 | 1300 | O=C(CC(CCn1nnc2ccccc2c1=O)C(=O)O)c1cc2ccc(OCCc3ccccc3)cc2o1 (racemic) [Example 73, (+/−)-4-Oxo-2-[2-(4-oxo-1,2,3-benzotriazin-3(4H)-yl)ethyl]-4-[6-(2-phenylethoxy)-1-benzofur-2-yl]butanoic acid] |
| 12.2 | 82.7 | 1200 | 15000 | 320 | O=C(CC(CCn1nnc2ccccc2c1=O)C(=O)O)c1noc2cc(OCc3ccc(F)cc3)ccc12 (racemic) [Example 136, (+/−)-4-{6-[(4-Fluorobenzyl)oxy]-1,2-benzoxazol-3-yl}-4-oxo-2-[2-(4-oxo-1,2,3-benzotriazin-3(4H)-yl)ethyl]butanoic acid] |
| 24.8 | 64.5 | 570 | 14000 | 95 | CCCCCOc1ccc2c(C(=O)CC(CCn3nnc4ccccc4c3=O)C(=O)O)noc2c1 (racemic) [Example 140, (+/−)-4-Oxo-2-[2-(4-oxo-1,2,3-benzotriazin-3(4H)-yl)ethyl]-4-[6-(pentyloxy)-1,2-benzoxazol-3-yl]butanoic acid] |
| 29 | 58.6 | 2500 | 18000 | 730 | O=C(CC(CCn1nnc2ccccc2c1=O)C(=O)O)c1noc2cc(OCCc3ccccc3)ccc12 (racemic) [Example 144, (+/−)-4-Oxo-2-[2-(4-oxo-1,2,3-benzotriazin-3(4H)-yl)ethyl]-4-[6-(2-phenylethoxy)-1,2-benzoxazol-3-yl]butanoic acid] |
| 25.5 | 63.7 | 2800 | 8900 | 430 | O=C(CC(CCn1nnc2ccccc2c1=O)C(=O)O)c1noc2cc(OCc3ccccc3)ccc12 (racemic) [Example 145, (+/−)-4-[6-(Benzyloxy)-1,2-benzoxazol-3-yl]-4-oxo-2-[2-(4-oxo-1,2,3-benzotriazin-3(4H)-yl)ethyl]butanoic acid] |
| 20.3 | 70.9 | 970 | 10000 | 5600 | O=C(CC(CCn1nnc2ccc(C(F)(F)F)cc2c1=O)C(=O)O)c1noc2cc(OCc3ccccc3)ccc12 (racemic) [Example 154, (+/−)-4-[6-(Benzyloxy)-1,2-benzoxazol-3-yl]-4-oxo-2-{2-[4-oxo-6-(trifluoromethyl)-1,2,3-benzotriazin-3(4H)-yl]ethyl}butanoic acid] |
| 20.2 | 71.1 | 82 | 19000 | 4500 | O=C(CC(CCn1nnc2ccc(C(F)(F)F)cc2c1=O)C(=O)O)c1noc2cc(OCC3CCOCC3)ccc12 (racemic) [Example 155, (+/−)-4-Oxo-2-{2-[4-oxo-6-(trifluoromethyl)-1,2,3-benzotriazin-3(4H)-yl]ethyl}-4-[6-(tetrahydro-2H-pyran-4-ylmethoxy)-1,2-benzoxazol-3-yl]butanoic acid] |
| 33.2 | 52.5 | 240 | 6400 | 220 | O=C(CC(CCn1nnc2ccccc2c1=O)C(=O)O)c1cc2ccc(OCC3CC3)cc2s1 (single isomer, unassigned; (+)) [Example 112, (+)-4-[6-(Cyclopropylmethoxy)-1-benzothiophen-2-yl]-4-oxo-2-[2-(4-oxo-1,2,3-benzotriazin-3(4H)-yl)ethyl]butanoic acid] |
| 22.7 | 67.5 | 170 | 12000 | 270 | O=C(C[C@H](CCn1nnc2ccccc2c1=O)C(=O)O)c1noc2cc(OCC3CCOCC3)ccc12 (single isomer, unassigned; enantiomer 2) [Example 135] |
| 10.8 | 84.5 | 310 | 2200 | 1700 | O=C(O)[C@@H]1[C@@H](Cn2nnc3ccc(C(F)(F)F)cc3c2=O)CC[C@H]1C(=O)c1cc2cc(OCCc3ccccc3)ccc2o1 (single isomer, unassigned; enantiomer 2) [Example 159, (+)-(1RS,2SR,5RS)-2-{[4-Oxo-6-(trifluoromethyl)-1,2,3-benzotriazin-3(4H)-yl]methyl}-5-{[5-(2-phenylethoxy)-1-benzofur-2-yl]carbonyl}cyclopentanecarboxylic acid (enantiomer 2)] |
